The record followed here is ChEMBL document CHEMBL4680318, “(S)-Erypoegin K, an isoflavone isolated from Erythrina poeppigiana, is a novel inhibitor of topoisomerase IIα: Induction of G2 phase arrest in human gastric cancer cells” (Bioorg Med Chem, 2021).

For one series, the system named is GCIY. The series can be described thus: Antitumor activity against human GCIY cells xenografted in KSN/Slc nude mouse assessed as reduction in tumor size at 40 mg/kg, ip administered twice a week for 4 weeks starting from day 4 post inoculation by vernier caliper method. The format is functional, organism-based. A general note: A xenograft is tissue or cells of one species grown in another, often human tumour cells in immunodeficient mice.

Series [1] in a line: Toxicity in KSN/Slc nude mouse xenografted with human GCIY cells assessed as effect on body weight at 40 mg/kg, ip administered twice a week for 4 weeks starting from day 4 post inoculation. The settings on record: in vivo, 672 h. The format is organism-based.
The nature of series [2]: Growth inhibition of human HBC4 cells measured after 48 hrs by sulforhodamine B assay. The format is functional. In general terms: Sulforhodamine B stains cellular protein and so reports cell mass.
A short description of series [3]: Growth inhibition of human BSY1 cells measured after 48 hrs by sulforhodamine B assay. Format: functional. The settings on record: BSY-1.
A short description of series [4]: Growth inhibition of human HBC5 cells measured after 48 hrs by sulforhodamine B assay. Format: functional.
The subject of a further series is MCF7. As to the kind of experiment: Growth inhibition of human MCF7 cells measured after 48 hrs by sulforhodamine B assay. The format is functional.
The next series deals with MDA-MB-231. The series can be described thus: Growth inhibition of human MDA-MB-231 cells measured after 48 hrs by sulforhodamine B assay. The format is functional.
The test system of the next series is U-251. As to the kind of experiment: Growth inhibition of human U-251 cells measured after 48 hrs by sulforhodamine B assay. The format is functional.
The next series deals with SF-268. As to the kind of experiment: Growth inhibition of human SF-268 cells measured after 48 hrs by sulforhodamine B assay. The format is functional.
The test system of another series is SF-295. The series can be described thus: Growth inhibition of human SF-295 cells measured after 48 hrs by sulforhodamine B assay. Format: functional.
The next series has as its system SF-539. The series can be described thus: Growth inhibition of human SF-539 cells measured after 48 hrs by sulforhodamine B assay. The format is functional.
Another series deals with SNB-75. The series can be described thus: Growth inhibition of human SNB-75 cells measured after 48 hrs by sulforhodamine B assay. Format: functional.
The subject of a further series is SNB-78. As to the kind of experiment: Growth inhibition of human SNB-78 cells measured after 48 hrs by sulforhodamine B assay. Format: functional.
The next series relates to HCC 2998. The series can be described thus: Growth inhibition of human HCC 2998 cells measured after 48 hrs by sulforhodamine B assay. The format is functional.
The subject of the next series is KM12. As to the kind of experiment: Growth inhibition of human KM12 cells measured after 48 hrs by sulforhodamine B assay. Format: functional.
The next series concerns HT-29. The series can be described thus: Growth inhibition of human HT-29 cells measured after 48 hrs by sulforhodamine B assay. The format is functional.
A further series concerns HCT-15. As to the kind of experiment: Growth inhibition of human HCT-15 cells measured after 48 hrs by sulforhodamine B assay. Format: functional.
The subject of a further series is HCT-116. The series can be described thus: Growth inhibition of human HCT-116 cells measured after 48 hrs by sulforhodamine B assay. Format: functional.
The next series has as its system NCI-H23. The series can be described thus: Growth inhibition of human NCI-H23 cells measured after 48 hrs by sulforhodamine B assay. The format is functional.
For a further series, the system named is NCI-H226. The series can be described thus: Growth inhibition of human NCI-H226 cells measured after 48 hrs by sulforhodamine B assay. Format: functional.
Another series has as its system NCI-H522. As to the kind of experiment: Growth inhibition of human NCI-H522 cells measured after 48 hrs by sulforhodamine B assay. Format: functional.
A further series deals with NCI-H460. As to the kind of experiment: Growth inhibition of human NCI-H460 cells measured after 48 hrs by sulforhodamine B assay. The format is functional.
The test system of a further series is A549. The series can be described thus: Growth inhibition of human A549 cells measured after 48 hrs by sulforhodamine B assay. The format is functional.
Another series relates to DMS-273. As to the kind of experiment: Growth inhibition of human DMS-273 cells measured after 48 hrs by sulforhodamine B assay. The format is functional.
The subject of a further series is DMS-114. As to the kind of experiment: Growth inhibition of human DMS-114 cells measured after 48 hrs by sulforhodamine B assay. The format is functional.
The test system of a further series is LOX IMVI. The series can be described thus: Growth inhibition of human LOX IMVI cells measured after 48 hrs by sulforhodamine B assay. The format is functional.
A further series relates to OVCAR-3. The series can be described thus: Growth inhibition of human OVCAR-3 cells measured after 48 hrs by sulforhodamine B assay. Format: functional.
A further series deals with OVCAR-4. As to the kind of experiment: Growth inhibition of human OVCAR-4 cells measured after 48 hrs by sulforhodamine B assay. The format is functional.
For a further series, the system named is OVCAR-5. As to the kind of experiment: Growth inhibition of human OVCAR-5 cells measured after 48 hrs by sulforhodamine B assay. Format: functional.
Another series deals with OVCAR-8. The series can be described thus: Growth inhibition of human OVCAR-8 cells measured after 48 hrs by sulforhodamine B assay. The format is functional.
The next series has as its system SK-OV-3. The series can be described thus: Growth inhibition of human SK-OV-3 cells measured after 48 hrs by sulforhodamine B assay. Format: functional.
The test system of a further series is RXF 631. As to the kind of experiment: Growth inhibition of human RXF 631 cells measured after 48 hrs by sulforhodamine B assay. The format is functional.
A further series relates to ACHN. As to the kind of experiment: Growth inhibition of human ACHN cells measured after 48 hrs by sulforhodamine B assay. Format: functional.
Another series deals with St-4. As to the kind of experiment: Growth inhibition of human St-4 cells measured after 48 hrs by sulforhodamine B assay. Format: functional.
A further series has as its system MKN-1. As to the kind of experiment: Growth inhibition of human MKN-1 cells measured after 48 hrs by sulforhodamine B assay. Format: functional.
A further series deals with MKN-7. The series can be described thus: Growth inhibition of human MKN-7 cells measured after 48 hrs by sulforhodamine B assay. Format: functional.
A further series concerns MKN-28. As to the kind of experiment: Growth inhibition of human MKN-28 cells measured after 48 hrs by sulforhodamine B assay. Format: functional.
Another series concerns MKN-45. The series can be described thus: Growth inhibition of human MKN-45 cells measured after 48 hrs by sulforhodamine B assay. The format is functional.
Another series relates to MKN-74. As to the kind of experiment: Growth inhibition of human MKN-74 cells measured after 48 hrs by sulforhodamine B assay. Format: functional.

The source made the active and inactive calls. The calls are words filed in the database; no cut-off is given here.

Turning to `O=c1[nH]cc(F)c(=O)[nH]1` [FLUOROURACIL], the result in the series with GCIY was Active. In series [1], the Activity result is “Non-Toxic”.

For `O=c1c(-c2ccc(O)cc2)coc2cc(O)cc(O)c12` [GENISTEIN], the concentration for 50% growth inhibition (GI50) in series [2] is 43.7 µM; in [3], 43.7 µM; in series [4], 26.9 µM; in the series on MCF7, 42.7 µM; with MDA-MB-231 it was 37.2 µM; in the series with U-251 it was 42.7 µM. Besides, the GI50 in the series with SF-268 was 30.2 µM; with SF-295 it was 28.8 µM; in the series with SF-539, 26.3 µM; with SNB-75, 15.8 µM; in the series with SNB-78, 38.9 µM; with HCC 2998, 45.7 µM. Besides, the GI50 with KM12 is 50.1 µM; with HT-29, 53.7 µM; in the series on HCT-15, 30.2 µM; with HCT-116 it was 25.1 µM; with NCI-H23, 36.3 µM; in the series with NCI-H226, 27.5 µM. The GI50 in the series with NCI-H522 was 17.8 µM; with NCI-H460, 26.3 µM; in the series on A549, 26.3 µM; in the series on DMS-273, 21.9 µM; with DMS-114 it was 49 µM; with LOX IMVI it was 18.2 µM. Besides, the GI50 is 31.6 µM with OVCAR-3; 43.7 µM in the series with OVCAR-4; 50.1 µM in the series on OVCAR-5; 35.5 µM with OVCAR-8; 89.1 µM in the series on SK-OV-3; 40.7 µM in the series on RXF 631. The GI50 in the series on ACHN is 19.5 µM; with St-4 it was 46.8 µM; in the series with MKN-1, 25.1 µM; with MKN-7 it was 30.2 µM; in the series on MKN-28, 39.8 µM; in the series on MKN-45, 32.4 µM. In the series on MKN-74, this compound gave a 50% growth inhibitory concentration (GI50) of 36.3 µM.

In general, GI50 refers to the concentration giving 50% growth inhibition.
